In patent US11484539B2, “Compounds and their uses for alleviating menopause-associated symptoms” (Estetra SPRL, priority 2018, dated 2022):
Read-outs that look alike come from different tables or passages of the source.

Assays:
post-menopausal women [1] = experiment: Adverse Events (AEs, TEAEs); type: in vivo
Source text: This is confirmed by the following statistical analysis. Using a Poisson regression model with a random effect for the patient and treatment group as a covariate to model the count of TEAEs in the different treatment groups, it can be shown that there is no statistical difference between the treatment groups (p value of 0.099). Second, a chi-square test was used to assess if the prevalence of patients reporting TEAEs in each treatment group was similar. No statistical difference was found between the treatment groups (p value of 0.575).

post-menopausal women [2] = experiment: Patients leaving the study; type: in vivo
Source text: 3. Patients leaving the study

post-menopausal women [3] = experiment: Menopause Rating Scale (MRS), total MRS score; type: in vivo; parameters: key: 0 = asymptomatic, 44 = highest degree of complaints
Source text: As used herein, the terms “Quality of Life” (and the abbreviation “QoL”) refers to a parameter which can be assessed, for example, by using questionnaires, such as, by way of example and not limitation, the “Menopause Rating Scale” questionnaire (Heinemann et al., 2003, “International versions of the Menopause Rating Scale (MRS)” Health Qual Life Outcomes 1: 28; Heinemann et al., 2004, “The Menopause Rating Scale (MRS) scale: A methodological review”. Health Qual Life Outcomes 2: 45; Heinemann et al., 2004, “The Menopause Rating Scale (MRS) as outcome measure for hormone treatment? A validation study”. Health Qual Life Outcomes 2:67; as further detailed below in Example 1 Section C.) or the MENQOL questionnaire (The Menopause-specific Quality of Life (MENQOL) questionnaire, Hilditch et al.; Maturitas 1996; A menopause-specific quality of life questionnaire: development and psychometric properties; 24(3); p. 161-175).
The Menopause Rating Scale (MRS) is a health-related quality of life scale allowing the measure of severity of age-/menopause-related complaints by rating a profile of symptoms (Heinemann et al., 2003, “International versions of the Menopause Rating Scale (MRS)” Health Qual Life Outcomes 1: 28; Heinemann et al., 2004, “The Menopause Rating Scale (MRS) scale: A methodological review”. Health Qual Life Outcomes 2: 45; Heinemann et al., 2004, “The Menopause Rating Scale (MRS) as outcome measure for hormone treatment? A validation study”. Health Qual Life Outcomes 2:67).
The score increases point by point with increasing severity of subjectively perceived complaints in each one of 11 items (severity expressed in 0 to 4 points in each item). By checking these 5 possible boxes of “severity” for each of the items in the questionnaire, the respondent provides their personal perception. The total MRS score ranges between 0 (asymptomatic) to 44 (highest degree of complaints). The minimal/maximal scores vary between three dimensions depending on the number of complaints allocated to the respective dimension of symptoms (Heinemann et al., 2003, Health Qual Life Outcomes 1: 28): • 1. psychological symptoms: 0 to 16 scoring points (4 symptoms: depressed, irritable, anxious, exhausted); • 2. somato-vegetative symptoms: 0 to 16 points (4 symptoms: sweating/flush, cardiac complaints, sleeping disorders, joint & muscle complaints); • 3. urogenital symptoms: 0 to 12 points (3 symptoms: sexual problems, urinary complaints, vaginal dryness).

postmenopausal women = conditions: cited from earlier work

- Number of patients leaving the study (post-menopausal women [2]; 2.5 mg): 9
- Number of patients leaving the study (post-menopausal women [2]; 5 mg): 11
- Number of patients leaving the study (post-menopausal women [2]; 10 mg): 15
- Number of patients leaving the study (post-menopausal women [2]; 15 mg): 8
SMILES: C[C@]12CC[C@@H]3c4ccc(O)cc4CC[C@H]3[C@@H]1[C@@H](O)[C@@H](O)[C@@H]2O [E4, 1,3,5 (10)-estratrien-3,15alpha,16alpha,17beta-tetrol]
- Count of Treatment Emergent AEs (TEAEs) (post-menopausal women [1]; 2.5 mg): 61
- Percentage of patients with TEAE leading to Study Discontinuation (post-menopausal women [1]; 2.5 mg): 1.9%
- Percentage of patients with severe TEAE (post-menopausal women [1]; 2.5 mg): 7.7%
- Count of Treatment Emergent AEs (TEAEs) (post-menopausal women [1]; 5 mg): 63
- Percentage of patients with TEAE leading to Study Discontinuation (post-menopausal women [1]; 5 mg): 6.4%
- Percentage of patients with severe TEAE (post-menopausal women [1]; 5 mg): 10.6%
- Count of Treatment Emergent AEs (TEAEs) (post-menopausal women [1]; 10 mg): 95
- Percentage of patients with TEAE leading to Study Discontinuation (post-menopausal women [1]; 10 mg): 5.6%
- Percentage of patients with severe TEAE (post-menopausal women [1]; 10 mg): 7.4%
- Average AEs per patient, in patients who had AEs (post-menopausal women [1]; 10 mg group): 3.2
- Count of Treatment Emergent AEs (TEAEs) (post-menopausal women [1]; 15 mg): 82
- Percentage of patients with TEAE leading to Study Discontinuation (post-menopausal women [1]; 15 mg): 4.1%
- Percentage of patients with severe TEAE (post-menopausal women [1]; 15 mg): 6.1%
- Average AEs per patient, in patients who had AEs (post-menopausal women [1]; 15 mg group): 2.6
- TEAEs compared with the 10 mg group (post-menopausal women [1]; 15 mg group): less TEAEs than patients in the 10 mg group
- Total MRS Score, Mean (post-menopausal women [3]; 2.5 mg, Baseline): 16.5
- Total MRS Score, Mean (post-menopausal women [3]; 2.5 mg, Week 12): 9.5
- Total MRS Score, Mean (post-menopausal women [3]; 2.5 mg, week 4): 10.3
- Total MRS Score, Mean (post-menopausal women [3]; 5 mg, Baseline): 16.5
- Total MRS Score, Mean (post-menopausal women [3]; 5 mg, Week 12): 11.0
- Total MRS Score, Mean (post-menopausal women [3]; 5 mg, week 4): 10.5
- Total MRS Score, Mean (post-menopausal women [3]; 10 mg, Baseline): 17.6
- Total MRS Score, Mean (post-menopausal women [3]; 10 mg, Week 12): 9.7
- Total MRS Score, Mean (post-menopausal women [3]; 10 mg, week 4): 11.7
- Total MRS Score, Mean (post-menopausal women [3]; 15 mg, Baseline): 16.4
- Total MRS Score, Mean (post-menopausal women [3]; 15 mg, Week 12): 8.1
- Total MRS Score, Mean (post-menopausal women [3]; 15 mg, week 4): 8.7
- Endometrial thickness (postmenopausal women; 2 mg estetrol group): stable
- Mean number of hot flushes and sweating (postmenopausal women; 2 mg estetrol per day): decrease
- Endometrial thickness (postmenopausal women; 10 mg estetrol group): increasing
